Data published in patent publication US20100173910A1, “TRIAMINOPYRIMIDINE CYCLOBUTENEDIONE DERIVATIVES USED AS PHOSPHATASE CDC25 INHIBITORS” (IPDRN PHSTMS D.S.S., priority 2007, published 2010).

Experiments:
[1] = molecular target: T1, purified recombinant CDC25C enzyme (MBP-CDC25C protein) (Homo sapiens, UniProt P30307); experiment: Phosphatase activity of the purified recombinant CDC25C enzyme (OMFP dephosphorylation, fluorescence); type: biochemical; conditions: OMFP 500 μM, 4 hours at 30° C., three independent experiments; nested upper bounds; read-out: IC50 for the phosphatase activity of the purified recombinant CDC25-C enzyme
T1 construct: made in house
T1 sequence (P30307 1-473): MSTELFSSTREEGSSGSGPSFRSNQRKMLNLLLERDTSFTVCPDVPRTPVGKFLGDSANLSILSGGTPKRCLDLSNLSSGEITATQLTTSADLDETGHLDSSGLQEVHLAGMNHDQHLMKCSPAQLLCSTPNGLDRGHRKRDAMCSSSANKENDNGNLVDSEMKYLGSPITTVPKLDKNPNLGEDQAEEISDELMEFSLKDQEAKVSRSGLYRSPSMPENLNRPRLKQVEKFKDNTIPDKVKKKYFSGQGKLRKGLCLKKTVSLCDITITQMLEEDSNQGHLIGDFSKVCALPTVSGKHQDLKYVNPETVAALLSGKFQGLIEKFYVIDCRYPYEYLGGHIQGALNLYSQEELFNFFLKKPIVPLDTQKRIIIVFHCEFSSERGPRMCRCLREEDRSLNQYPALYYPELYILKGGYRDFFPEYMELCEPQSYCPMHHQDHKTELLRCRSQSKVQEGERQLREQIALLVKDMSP
Protocol: i) Determination of the Phosphatase Activity of the Purified Recombinant CDC25C Enzyme:
The phosphatase activity of the MBP-CDC25C protein is evaluated through its dephosphorylation of 3-O-methylfluorescein-phosphate (OMFP) to form 3-O-methylfluorescein (OMF), determining the fluorescence of the reaction product at 475 nm. This assay can be used to identify inhibitors of the recombinant CDC25 enzyme. The preparation of the MBP-CDC25C fusion protein is described in the PCT patent application published under the number WO 01/44467.
The reaction is performed in 384-well plates in a final volume of 50 μl. The MBP-CDC25C protein (prepared as described hereinabove) is stored in the following elution buffer: 20 mM Tris-HCl pH 7.4; 250 mM NaCl; 1 mM EDTA; 1 mM dithiothreitol (DTT); 10 mM maltose. It is diluted to a concentration of 60 μM in the following reaction buffer: 50 mM Tris-HCl pH 8.2; 50 mM NaCl; 1 mM DTT; 20% glycerol. The background noise is determined using with the buffer without adding the enzyme. The products are tested at decreasing concentrations from 40 μM. The reaction is initiated by the addition of OMFP solution to a final concentration of 500 μM (prepared immediately before use from a 12.5 mM stock solution in 100% DMSO (Sigma #M2629)). After 4 hours at 30° C. in a disposable 384-well plate, the fluorescence measured at OD 475 nm is read on a Victor^2 plate reader (EGG-Wallac). The concentration that produces 50% inhibition of the enzyme reaction is calculated from three independent experiments. Only the values that fall within the linear part of the sigmoid curve are used for the linear regression analysis.

[2] = test system: DU 145 (human prostate carcinoma cells); experiment: Anti-proliferative activity, DU 145 cells (WST1 colorimetric test); type: cell-based; conditions: DU-145, 96 h, 96 hours treatment, up to 10 μM, nested upper bounds, read-out: IC50 for proliferation of the DU 145 cell lines
Protocol: (§1) ii) Characterisation of Anti-Proliferative Activity:
(§2) By way of an example, the effect of treating two human cell lines MIA PaCa-2 and DU 145 with the compounds of the examples described hereinbefore will be studied. The cell lines DU 145 (human prostate carcinoma cells) and MIA PaCa-2 (human pancreatic carcinoma cells) were obtained from the American Tissue Culture Collection (Rockville, Md., USA). A 96-well plate was inoculated on day 0 with cells in 80 μl of Dulbecco's modified Eagle's medium (Gibco-Brl, Cergy-Pontoise, France) with 10% heat-inactivated foetal calf serum (Gibco-Brl, Cergy-Pontoise, France), 50,000 units/l of penicillin and 50 mg/l of streptomycin (Gibco-Brl, Cergy-Pontoise, France) and 2 mM of glutamine (Gibco-Brl, Cergy-Pontoise, France). The cells were treated on day 1 for 96 hours with increasing concentrations of each test compound up to 10 μM. At the end of this period, cell proliferation is quantified by means of a colorimetric test based on cleavage of the tetrazolium salt WST1 by the mitochondrial dehydrogenases in the viable cells, resulting in formation of formazan (Boehringer Mannheim, Meylan, France). These tests are performed in duplicate with 8 determinations per concentration tested. For each test compound, the values within the linear part of the sigmoid curve were subjected to linear regression analysis and used to estimate the IC50 inhibitory concentration. The products are solubilised in dimethylsulfoxide (DMSO) at a concentration of 10^−2 M and used in culture with a final DMSO concentration of 0.1%.

[3] = test system: MIA PaCa-2 (human pancreatic carcinoma cells); experiment: Anti-proliferative activity, MIA PaCa-2 cells (WST1 colorimetric test); type: cell-based; conditions: MIA PaCa-2, 96 h, 96 hours treatment, up to 10 μM, nested upper bounds, read-out: IC50 for proliferation of the MIA PaCa-2 cell lines
Protocol: as §1, §2

Structure (SMILES) | melting point [°C] | IC50 [1] [µM] | IC50 [2] [µM] | IC50 [3] [µM]
Cl.O=c1c(NCCNc2cc(N3CCCC3)nc(N3CCCC3)n2)c(Nc2ccc(Cl)cc2)c1=O | > 370 | – | – | –
COc1c(NCCNc2cc(N3CCCC3)nc(N3CCCC3)n2)c(=O)c1=O [Example 1, 3-({2-[(2,6-dipyrrolidin-1-ylpyrimidin-4-yl)amino]ethyl}amino)-4-methoxycyclobut-3-ene-1,2-dione] | 116 to 118 | ≤ 5 | – | –
O=c1c(NCCNc2cc(N3CCCC3)nc(N3CCCC3)n2)c(N2CCCCC2)c1=O [Example 2, 3-({2-[(2,6-dipyrrolidin-1-ylpyrimidin-4-yl)amino]ethyl}amino)-4-piperidin-1-ylcyclobut-3-ene-1,2-dione] | > 250 | ≤ 5 | – | –
CCCCNc1c(NCCNc2cc(N3CCCC3)nc(N3CCCC3)n2)c(=O)c1=O [Example 3, 3-(butylamino)-4-({2-[(2,6-dipyrrolidin-1-ylpyrimidin-4-yl)amino]ethyl}amino)cyclobut-3-ene-1,2-dione] | 246 to 248 | ≤ 1 | – | –
O=c1c(NCCNc2cc(N3CCCC3)nc(N3CCCC3)n2)c(N2CCOCC2)c1=O [Example 4, 3-({2-[(2,6-dipyrrolidin-1-ylpyrimidin-4-yl)amino]ethyl}amino)-4-morpholin-4-ylcyclobut-3-ene-1,2-dione] | 242 to 244 | ≤ 5 | – | –
COc1c(NCCN(C)CCNc2cc(N3CCCC3)nc(N3CCCC3)n2)c(=O)c1=O [Example 6] | 132 to 134 | ≤ 5 | – | –
CN(CCNc1cc(N2CCCC2)nc(N2CCCC2)n1)CCNc1c(O)c(=O)c1=O [Example 7, 3-({2-[{2-[(2,6-dipyrrolidin-1-ylpyrimidin-4-yl)amino]ethyl}(methyl)amino]ethyl}amino)-4-hydroxycyclobut-3-ene-1,2-dione] | – | ≤ 5 | – | –
O=c1c(NCCNc2cc(N3CCCC3)nc(N3CCCC3)n2)c(Nc2ccc(Cl)cc2)c1=O [Example 9, 3-[(4-chlorophenyl)amino]-4-({2-[(2,6-dipyrrolidin-1-ylpyrimidin-4-yl)amino]ethyl}amino)cyclobut-3-ene-1,2-dione] | 251 to 253 | ≤ 1 | – | –
O=S(=O)(O)O.O=c1c(NCCNc2cc(N3CCCC3)nc(N3CCCC3)n2)c(Nc2ccc(Cl)cc2)c1=O [Example 9b, 3-[(4-chlorophenyl)amino]-4-({2-[(2,6-dipyrrolidin-1-ylpyrimidin-4-yl)amino]ethyl}amino)cyclobut-3-ene-1,2-dione sulfate] | 263 to 266 | – | – | –
O=P(O)(O)O.O=c1c(NCCNc2cc(N3CCCC3)nc(N3CCCC3)n2)c(Nc2ccc(Cl)cc2)c1=O [Example 9c, 3-[(4-chlorophenyl)amino]-4-({2-[(2,6-dipyrrolidin-1-ylpyrimidin-4-yl)amino]ethyl}amino)cyclobut-3-ene-1,2-dione phosphate] | 275 to 278 | – | – | –
O=C(O)/C=C\C(=O)O.O=c1c(NCCNc2cc(N3CCCC3)nc(N3CCCC3)n2)c(Nc2ccc(Cl)cc2)c1=O [Example 9d, 3-[(4-chlorophenyl)amino]-4-({2-[(2,6-dipyrrolidin-1-ylpyrimidin-4-yl)amino]ethyl}amino)cyclobut-3-ene-1,2-dione maleate] | 248 to 250 | – | – | –
O=c1c(NCCNc2cc(N3CCCC3)nc(N3CCCC3)n2)c(Nc2ccc(-c3ccccc3)cc2)c1=O [Example 11, 3-(biphenyl-4-ylamino)-4-({2-[(2,6-dipyrrolidin-1-ylpyrimidin-4-yl)amino]ethyl}amino)cyclobut-3-ene-1,2-dione] | – | ≤ 5 | ≤ 10 | –
O=c1c(NCCNc2cc(N3CCCC3)nc(N3CCCC3)n2)c(Nc2cccc(-c3nnn[nH]3)c2)c1=O [Example 12, 3-({2-[(2,6-dipyrrolidin-1-ylpyrimidin-4-yl)amino]ethyl}amino)-4-{[3-(1H-tetrazol-5-yl)phenyl]amino}cyclobut-3-ene-1,2-dione] | – | ≤ 5 | – | –
CC(=O)Nc1ccc(Nc2c(NCCNc3cc(N4CCCC4)nc(N4CCCC4)n3)c(=O)c2=O)cc1 [Example 13, N-(4-{[2-({2-[(2,6-dipyrrolidin-1-ylpyrimidin-4-yl)amino]ethyl}amino)-3,4-dioxocyclobut-1-en-1-yl]amino}phenyl)acetamide] | 263 to 265 | ≤ 5 | – | –
COc1cc(Nc2c(NCCNc3cc(N4CCCC4)nc(N4CCCC4)n3)c(=O)c2=O)cc(OC)c1OC [Example 14, 3-({2-[(2,6-dipyrrolidin-1-ylpyrimidin-4-yl)amino]ethyl}amino)-4-[(3,4,5-trimethoxyphenyl)amino]cyclobut-3-ene-1,2-dione] | 154 to 156 | ≤ 5 | – | ≤ 10
O=c1c(NCCNc2cc(N3CCCC3)nc(N3CCCC3)n2)c(Nc2ccccc2Cl)c1=O [Example 16, 3-[(2-chlorophenyl)amino]-4-({2-[(2,6-dipyrrolidin-1-ylpyrimidin-4-yl)amino]ethyl}amino)cyclobut-3-ene-1,2-dione] | 179 to 181 | ≤ 1 | – | ≤ 10
CNCc1ccc(Nc2c(NCCNc3cc(N4CCCC4)nc(N4CCCC4)n3)c(=O)c2=O)cc1.Cl [Example 22, 3-({2-[(2,6-dipyrrolidin-1-ylpyrimidin-4-yl)amino]ethyl}amino)-4-({4-[(methylamino)methyl]phenyl}amino)cyclobut-3-ene-1,2-dione hydrochloride] | > 260 | ≤ 5 | – | ≤ 10
O=c1c(NCCNc2cc(N3CCCC3)nc(N3CCCC3)n2)c(Nc2ccc(O)cc2)c1=O [Example 27, 3-({2-[(2,6-dipyrrolidin-1-ylpyrimidin-4-yl)amino]ethyl}amino)-4-[(4-hydroxyphenyl)amino]cyclobut-3-ene-1,2-dione] | > 260 | ≤ 15 | – | –
Cl.NCc1ccc(Nc2c(NCCNc3cc(N4CCCC4)nc(N4CCCC4)n3)c(=O)c2=O)cc1 [Example 28, 3-{[4-(aminomethyl)phenyl]amino}-4-({2-[(2,6-dipyrrolidin-1-ylpyrimidin-4-yl)amino]ethyl}amino)cyclobut-3-ene-1,2-dione hydrochloride] | 224 to 226 | ≤ 5 | – | ≤ 10
Cl.NCCc1ccc(Nc2c(NCCNc3cc(N4CCCC4)nc(N4CCCC4)n3)c(=O)c2=O)cc1 [Example 30, 3-{[4-(2-aminoethyl)phenyl]amino}-4-({2-[(2,6-dipyrrolidin-1-ylpyrimidin-4-yl)amino]ethyl}amino)cyclobut-3-ene-1,2-dione hydrochloride] | 250 to 252 | ≤ 5 | – | –
O=c1c(NCCNc2cc(N3CCCC3)nc(N3CCCC3)n2)c(Nc2ccccc2)c1=O [Example 35, 3-anilino-4-({2-[(2,6-dipyrrolidin-1-ylpyrimidin-4-yl)amino]ethyl}amino)cyclobut-3-ene-1,2-dione] | – | ≤ 1 | – | ≤ 10
